This is an account of results in patent US12365687B2 (Hoffmann-La Roche Inc., priority 2021, dated 2025).

Test [1] concerns the target human GABAA α1β3γ2 receptor (Homo sapiens (Human), UniProt P14867+P18507). Description: Radioligand binding assay for γ2-containing GABAA subtypes, [3H]Flumazenil competition (α1β3γ2). The settings on record: for γ2/γ1 Selectivity Ratio: Ki α1β3γ2 (nM)/Ki α2β2γ1 (nM); for LogSel: Log[Ki α1β3γ2 (nM)/Ki α2β2γ1 (nM)].
The target in test [2] is human GABAA α5β2γ1 receptor (Homo sapiens (Human), UniProt P31644+Q8N1C3). Description: Radioligand binding assay for γ1-containing GABAA subtypes, [3H]RO7239181 competition (α5β2γ1).
Test [3] has as its target α2β2γ1 GABAA receptor subtype (Homo sapiens (Human), UniProt P47869+Q8N1C3). The test is described as follows: Two-electrode voltage clamp electrophysiology in Xenopus oocytes expressing GABAA receptors (modulation of GABA EC20 current). The settings on record: for Efficacy (GABA)%: % modulation of GABA EC20 = 100*(Fold increase-1), α2β2γ1 oocytes, compound at approx. 30-fold Ki; for Fold increase h-GABA-A α2β2γ1 oocyte @ 30-fold Ki: Xenopus oocytes expressing α2β2γ1, compound at approx. 30-fold its Ki α2β2γ1, GABA EC20 current. It counts as cell-based. A digest of the protocol: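 Each concentration was tested on ≥3 oocytes held at −80 mV at room temperature, recorded 3-5 days post-injection. A control and a test response to EC20 GABA (1.5 min each) were superimposed and their point-by-point ratio taken. Peak ratio reported as % modulation of GABA EC20 = 100×(fold increase−1).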

Test [4] concerns the target human GABAA α2β2γ1 receptor (Homo sapiens (Human), UniProt P47869+Q8N1C3). Description: Radioligand binding assay for γ1-containing GABAA subtypes, [3H]RO7239181 competition (α2β2γ1).
The mark [5] stands for this setting: Ki h-GABAA α2β2γ1, [3H]RO7239181 competition binding, human GABAA α2β2γ1.
Where [6] appears, read: Ki h-GABAA α2β2γ1, displacement of [3H]RO7239181, membranes of HEK293F cells expressing human receptors, means of two determinations.

For the compound `C[C@@H]1N=C(c2ncccc2F)c2c(ccc(Cl)c2Cl)-n2nc(C(=O)N3CC(OC(F)F)C3)nc21` [Example 90, [(4S)-7,8-dichloro-6-(3-fluoro-2-pyridyl)-4-methyl-4H-[1,2,4]triazolo[1,5-a][1,4]benzodiazepin-2-yl]-[3-(difluoromethoxy)azetidin-1-yl]methanone], the Ki was 4740 nM in test [1], 6.09 nM in test [2], 21.8 nM in test [4] (setting [5]) and 21.8 nM in test [4] (setting [6]). Further, the “γ2/γ1 Selectivity Ratio” value in test [1] came to 217.2. Moreover, the LogSel in test [1] was determined as 2.34. Moreover, the “Efficacy (GABA)%” value in test [3] is on record as 104%. In test [3], the “Fold increase h-GABA-A α2β2γ1 oocyte @ 30-fold Ki” value was 2.04.

Take `COc1nc2n(n1)-c1ccc(Cl)c(Cl)c1C(c1c(F)cccc1F)=N[C@H]2C` [Example 91, (4S)-7,8-dichloro-6-(2,6-difluorophenyl)-2-methoxy-4-methyl-4H-[1,2,4]triazolo[1,5-a][1,4]benzodiazepine]: in test [1], the Ki stood at 752 nM, the “γ2/γ1 Selectivity Ratio” value was determined as 31.7 and the LogSel was determined as 1.50. Moreover, the Ki in test [2] turned out to be 1.5 nM. In test [3], the “Efficacy (GABA)%” value came to 75% and the “Fold increase h-GABA-A α2β2γ1 oocyte @ 30-fold Ki” value was determined as 1.75. Also, in test [4] (setting [5]), the Ki stood at 23.7 nM. Besides, the Ki in test [4] (setting [6]) was 23.7 nM.

As for `C[C@@H]1N=C(c2c(F)cccc2F)c2c(ccc(Cl)c2Cl)-n2nc(OC3COC3)nc21` [Example 92, (4S)-7,8-dichloro-6-(2,6-difluorophenyl)-4-methyl-2-(oxetan-3-yloxy)-4H-[1,2,4]triazolo[1,5-a][1,4]benzodiazepine], in test [1], the Ki is 3280 nM, the “γ2/γ1 Selectivity Ratio” value is given as 73.0 and the LogSel is on record as 1.86. The compound also had a Ki in test [2] of 4.45 nM. In test [3], the “Efficacy (GABA)%” value was found to be 44% and the “Fold increase h-GABA-A α2β2γ1 oocyte @ 30-fold Ki” value worked out at 1.44. This compound also gave a Ki in test [4] (setting [5]) of 44.9 nM. The same compound yielded a Ki in test [4] (setting [6]) of 44.9 nM.

Consider `C[C@@H]1N=C(c2c(F)cccc2F)c2c(ccc(Cl)c2Cl)-n2nc(C(=O)N3CC4(COC4)C3)nc21` [Example 93, [(4S)-7,8-dichloro-6-(2,6-difluorophenyl)-4-methyl-4H-[1,2,4]triazolo[1,5-a][1,4]benzodiazepin-2-yl]-(2-oxa-6-azaspiro[3.3]heptan-6-yl)methanone], for which, in test [1], the Ki is 1290 nM, the “γ2/γ1 Selectivity Ratio” value stood at 390.6 and the LogSel is given as 2.59. The compound further had a Ki in test [2] of 2.25 nM. For the same compound, in test [3], the “Efficacy (GABA)%” value stood at 75% and the “Fold increase h-GABA-A α2β2γ1 oocyte @ 30-fold Ki” value turned out to be 1.75. Also, the Ki in test [4] (setting [5]) was found to be 3.3 nM. This compound also had a Ki in test [4] (setting [6]) of 3.3 nM.

As to `C[C@@H]1N=C(c2c(F)cccc2F)c2c(ccc(Cl)c2Cl)-n2nc(C(=O)N3CC4(CCO4)C3)nc21` [Example 94, [(4S)-7,8-dichloro-6-(2,6-difluorophenyl)-4-methyl-4H-[1,2,4]triazolo[1,5-a][1,4]benzodiazepin-2-yl]-(1-oxa-6-azaspiro[3.3]heptan-6-yl)methanone], the inhibition constant (Ki) in test [1] turned out to be 586 nM; in test [2], 1.43 nM; in test [4] (setting [5]) it was 3.9 nM; in test [4] (setting [6]), 3.89 nM. The “γ2/γ1 Selectivity Ratio” value in test [1] turned out to be 150.7. This compound yielded a LogSel in test [1] of 2.18. The “Efficacy (GABA)%” value in test [3] is 76%. The “Fold increase h-GABA-A α2β2γ1 oocyte @ 30-fold Ki” value in test [3] is 1.76.

For `C[C@@H]1N=C(c2ncccc2F)c2c(ccc(Cl)c2Cl)-n2nc(C(=O)N3CC4(CCOCC4)C3)nc21` [Example 95, 7-oxa-2-azaspiro[3.5]nonan-2-yl-[(4S)-7,8-dichloro-6-(3-fluoro-2-pyridyl)-4-methyl-4H-[1,2,4]triazolo[1,5-a][1,4]benzodiazepin-2-yl]methanone], in test [1], the inhibition constant (Ki) was 9440 nM, the “γ2/γ1 Selectivity Ratio” value amounted to 198.4 and the LogSel came out at 2.30. The compound further had a Ki in test [2] of 20.2 nM. Moreover, in test [3], the “Efficacy (GABA)%” value turned out to be 126% and the “Fold increase h-GABA-A α2β2γ1 oocyte @ 30-fold Ki” value is listed as 2.26. Also, in test [4] (setting [5]), the Ki worked out at 47.6 nM. Affinity in test [4] (setting [6]) was put at a Ki of 47.6 nM.

For the compound `C[C@@H]1N=C(c2c(F)cccc2F)c2c(ccc(Cl)c2Cl)-n2nc(C(=O)N3CC4(CCCCO4)C3)nc21` [Example 96, [(4S)-7,8-dichloro-6-(2,6-difluorophenyl)-4-methyl-4H-[1,2,4]triazolo[1,5-a][1,4]benzodiazepin-2-yl]-(5-oxa-2-azaspiro[3.5]nonan-2-yl)methanone], in test [1], the Ki was determined as 933 nM, the “γ2/γ1 Selectivity Ratio” value amounted to 145.4 and the LogSel came out at 2.16. The compound further displayed a Ki in test [2] of 2.65 nM. In test [3], the “Efficacy (GABA)%” value was 52% and the “Fold increase h-GABA-A α2β2γ1 oocyte @ 30-fold Ki” value was 1.52. In addition, in test [4] (setting [5]), the Ki worked out at 6.4 nM. Moreover, the Ki in test [4] (setting [6]) worked out at 6.42 nM.

As to `C[C@@H]1N=C(c2ncccc2F)c2c(ccc(Cl)c2Cl)-n2nc(C(=O)N3CC4(CCCO4)C3)nc21` [Example 97, [(4S)-7,8-dichloro-6-(3-fluoro-2-pyridyl)-4-methyl-4H-[1,2,4]triazolo[1,5-a][1,4]benzodiazepin-2-yl]-(5-oxa-2-azaspiro[3.4]octan-2-yl)methanone], in test [1], the Ki amounted to 3590 nM, the “γ2/γ1 Selectivity Ratio” value came to 242.0 and the LogSel came out at 2.38. In test [2], this compound returned a Ki of 8.64 nM. Besides, in test [3], the “Efficacy (GABA)%” value was 95% and the “Fold increase h-GABA-A α2β2γ1 oocyte @ 30-fold Ki” value stood at 1.95. Besides, in test [4] (setting [5]), the Ki is 14.8 nM. This compound gave a Ki in test [4] (setting [6]) of 14.8 nM.

As to `C[C@@H]1N=C(c2ncccc2F)c2c(ccc(Cl)c2Cl)-n2nc(C(=O)N3CC4(CCO4)C3)nc21` [Example 98, [(4S)-7,8-dichloro-6-(3-fluoro-2-pyridyl)-4-methyl-4H-[1,2,4]triazolo[1,5-a][1,4]benzodiazepin-2-yl]-(1-oxa-6-azaspiro[3.3]heptan-6-yl)methanone], in test [1], the inhibition constant (Ki) is 8110 nM, the “γ2/γ1 Selectivity Ratio” value is 99.2 and the LogSel was determined as 2.00. In test [2], this compound gave a Ki of 29.8 nM. In test [3], the “Efficacy (GABA)%” value is given as 158% and the “Fold increase h-GABA-A α2β2γ1 oocyte @ 30-fold Ki” value was determined as 2.58. In addition, affinity in test [4] (setting [5]) was put at a Ki of 81.7 nM. In test [4] (setting [6]), the Ki came to 81.8 nM.

On to `C[C@@H]1N=C(c2c(F)cccc2F)c2c(ccc(Cl)c2Cl)-n2nc(C(=O)N3CC4(CCOCC4)C3)nc21` [Example 99, [(4S)-7,8-dichloro-6-(2,6-difluorophenyl)-4-methyl-4H-[1,2,4]triazolo[1,5-a][1,4]benzodiazepin-2-yl]-(7-oxa-2-azaspiro[3.5]nonan-2-yl)methanone], for which, in test [1], the Ki came out at 1550 nM, the “γ2/γ1 Selectivity Ratio” value was found to be 348.9 and the LogSel is 2.54. For the same compound, affinity in test [2] was put at a Ki of 3.29 nM. Moreover, in test [3], the “Efficacy (GABA)%” value was 52% and the “Fold increase h-GABA-A α2β2γ1 oocyte @ 30-fold Ki” value stood at 1.52. The affinity in test [4] (setting [5]), expressed as Ki, was 4.5 nM. In test [4] (setting [6]), this compound gave a Ki of 4.45 nM.

As for `C[C@@H]1N=C(c2ncccc2F)c2c(ccc(Cl)c2Cl)-n2nc(C(=O)N3CC4(CCOC4)C3)nc21` [Example 100, [(4S)-7,8-dichloro-6-(3-fluoro-2-pyridyl)-4-methyl-4H-[1,2,4]triazolo[1,5-a][1,4]benzodiazepin-2-yl]-(6-oxa-2-azaspiro[3.4]octan-2-yl)methanone], in test [1], affinity was put at a Ki of 9110 nM, the “γ2/γ1 Selectivity Ratio” value is recorded as 219.5 and the LogSel was found to be 2.34. In addition, affinity in test [2] was put at a Ki of 7.53 nM. Further, in test [3], the “Efficacy (GABA)%” value is 128% and the “Fold increase h-GABA-A α2β2γ1 oocyte @ 30-fold Ki” value came to 2.28. This compound came in with a Ki in test [4] (setting [5]) of 41.5 nM. The Ki in test [4] (setting [6]) came to 41.5 nM.

Consider `C[C@@H]1N=C(c2ncccc2F)c2c(ccc(Cl)c2Cl)-n2nc(C(=O)N3CC4(CCCCO4)C3)nc21` [Example 101, [(4S)-7,8-dichloro-6-(3-fluoro-2-pyridyl)-4-methyl-4H-[1,2,4]triazolo[1,5-a][1,4]benzodiazepin-2-yl]-(5-oxa-2-azaspiro[3.5]nonan-2-yl)methanone], for which, in test [1], the Ki was found to be 8680 nM, the “γ2/γ1 Selectivity Ratio” value was determined as 228.3 and the LogSel was found to be 2.36. The compound further had an inhibitory constant (Ki) in test [2] of 14.4 nM. In test [3], the “Efficacy (GABA)%” value worked out at 97% and the “Fold increase h-GABA-A α2β2γ1 oocyte @ 30-fold Ki” value is given as 1.97. The Ki in test [4] (setting [5]) is 38 nM. Also, the Ki in test [4] (setting [6]) came out at 38 nM.

`C[C@@H]1N=C(c2ncccc2F)c2c(ccc(Cl)c2Cl)-n2nc(C(=O)N3CC4(COC4)C3)nc21` [Example 102, [(4S)-7,8-dichloro-6-(3-fluoro-2-pyridyl)-4-methyl-4H-[1,2,4]triazolo[1,5-a][1,4]benzodiazepin-2-yl]-(2-oxa-6-azaspiro[3.3]heptan-6-yl)methanone]: in test [1], the affinity corresponds to a Ki of 7250 nM, the “γ2/γ1 Selectivity Ratio” value was 140.7 and the LogSel is 2.15. Besides, the Ki in test [2] was 6.83 nM. Besides, in test [3], the “Efficacy (GABA)%” value was found to be 143% and the “Fold increase h-GABA-A α2β2γ1 oocyte @ 30-fold Ki” value is listed as 2.43. For the same compound, the Ki in test [4] (setting [5]) was found to be 51.5 nM. Further, in test [4] (setting [6]), the Ki came to 51.5 nM.
